What was measured:
human recombinant BACE2 = human recombinant BACE2 (Homo sapiens (Human), UniProt Q9Y5Z0); experiment: In vitro enzymatic BACE2 FRET assay; format: biochemical; conditions: read-out: IC50 IP (μM) BACE2 enzyme
Outline: (§1)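 Fluorescence from cleavage of a quenched peptide spanning the BACE site (50 nM) was read at 488 nm excitation, 590 nm emission. Purified enzyme (Ni-NTA) and compound reacted for one hour before a Tris stop shifted pH to neutral.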

[1] = system: Aβ40 in conditioned medium of cells stably expressing Amyloid Precursor Protein (APP); experiment: In vitro BACE-1 cell-based assay (Aβ40 sandwich ELISA); conditions: read-out: IC50 IP (μM) BACE1 cell
Outline: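 Aβ40 in supernatants measured by time-resolved fluorescence sandwich ELISA, with pAb40 as capture and biotin-6E10 as detector antibody, each incubated at 4 °C.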

Recombinant Cat D = Recombinant Cat D (Homo sapiens (Human), UniProt P07339); experiment: In vitro enzymatic Cathepsin D (Cat D) FRET assay; format: biochemical; conditions: read-out: IC50 IP (μM) CatD
Outline: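 Fluorescence at 500 nm excitation and 580 nm emission reports cleavage of a quenched fluorophore–quencher peptide (20 nM) by CHO-expressed Cat D. Reactions ran one hour in 0.05 M citrate pH 3.5, 5 mM CHAPS, 10% DMSO final before a Tris stop raised pH to neutrality.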

human recombinant BACE1 = human recombinant BACE1 (Homo sapiens (Human), UniProt P56817); experiment: In vitro enzymatic BACE1 FRET assay; format: biochemical; conditions: read-out: IC50 IP (μM) BACE1 enzyme
Outline: as §1

human recombinant BACE1, sequence (P56817 46-501): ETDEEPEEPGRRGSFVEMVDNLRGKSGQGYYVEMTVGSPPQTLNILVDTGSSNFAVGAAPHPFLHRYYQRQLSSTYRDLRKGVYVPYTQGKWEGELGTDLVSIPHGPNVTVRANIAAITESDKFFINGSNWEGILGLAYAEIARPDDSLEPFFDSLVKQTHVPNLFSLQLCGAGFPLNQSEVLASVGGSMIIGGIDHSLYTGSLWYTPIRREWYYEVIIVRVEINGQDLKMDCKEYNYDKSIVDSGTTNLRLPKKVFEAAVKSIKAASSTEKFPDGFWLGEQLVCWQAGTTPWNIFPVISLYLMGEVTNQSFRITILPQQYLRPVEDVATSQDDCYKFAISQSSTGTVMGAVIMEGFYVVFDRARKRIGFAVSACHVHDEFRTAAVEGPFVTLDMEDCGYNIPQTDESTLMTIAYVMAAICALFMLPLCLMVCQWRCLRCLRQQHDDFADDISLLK
human recombinant BACE2, sequence (Q9Y5Z0 63-518): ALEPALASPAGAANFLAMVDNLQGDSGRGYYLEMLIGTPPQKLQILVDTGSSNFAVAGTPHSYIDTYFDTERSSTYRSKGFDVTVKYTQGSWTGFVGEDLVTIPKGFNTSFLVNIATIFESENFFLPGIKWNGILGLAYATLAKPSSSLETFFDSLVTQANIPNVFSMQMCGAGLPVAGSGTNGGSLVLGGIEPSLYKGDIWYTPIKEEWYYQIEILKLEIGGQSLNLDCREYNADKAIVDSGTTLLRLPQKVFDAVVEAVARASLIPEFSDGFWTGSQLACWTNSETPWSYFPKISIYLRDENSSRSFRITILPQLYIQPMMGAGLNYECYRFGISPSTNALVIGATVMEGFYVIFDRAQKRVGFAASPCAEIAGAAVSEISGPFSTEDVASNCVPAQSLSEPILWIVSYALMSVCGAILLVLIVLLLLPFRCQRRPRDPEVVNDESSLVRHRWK
Recombinant Cat D, sequence (P07339 65-412): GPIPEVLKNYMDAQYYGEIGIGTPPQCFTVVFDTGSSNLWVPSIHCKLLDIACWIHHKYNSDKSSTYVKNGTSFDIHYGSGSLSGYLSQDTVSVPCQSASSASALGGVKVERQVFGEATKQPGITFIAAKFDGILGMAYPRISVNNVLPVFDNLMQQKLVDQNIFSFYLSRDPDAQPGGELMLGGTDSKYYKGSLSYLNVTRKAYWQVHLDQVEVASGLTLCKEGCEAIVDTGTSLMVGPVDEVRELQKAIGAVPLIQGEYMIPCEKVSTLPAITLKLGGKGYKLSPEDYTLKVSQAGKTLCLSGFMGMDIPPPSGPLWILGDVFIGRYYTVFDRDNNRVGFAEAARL

SMILES | IC50 (human recombinant BACE2) [µM] | IC50 [1] [µM] | IC50 (Recombinant Cat D) [µM] | IC50 (human recombinant BACE1) [µM]
COc1ncc(NC(=O)c2ccc(Cl)cn2)cc1[C@@]1(C)N=C(N)S[C@@]2(CF)C[C@H]21 [Example 624, N-(5-((1S,5S,6S)-3-amino-1-(fluoromethyl)-5-methyl-2-thia-4-azabicyclo[4.1.0]hept-3-en-5-yl)-6-methoxy-3-pyridinyl)-5-chloro-2-pyridinecarboxamide] | 0.00394 | 0.0435 | > 400 | 0.0298
C#CCOc1cnc2c(Nc3cnc(OC)c([C@@]4(C)N=C(N)S[C@@]5(CF)C[C@H]54)c3)ncnc2c1 [Example 625, N-(5-((1S,5S,6S)-3-amino-1-(fluoromethyl)-5-methyl-2-thia-4-azabicyclo[4.1.0]hept-3-en-5-yl)-6-methoxy-3-pyridinyl)-7-(2-propyn-1-yloxy)pyrido[3,2-d]pyrimidin-4-amine] | 0.401 | 0.014 | 730 | 0.0309
COc1ncc(Nc2nccc3nc(OCc4ncco4)cnc23)cc1[C@@]1(C)N=C(N)S[C@@]2(CF)C[C@H]21 [Example 626, N-(5-((1S,5S,6S)-3-amino-1-(fluoromethyl)-5-methyl-2-thia-4-azabicyclo[4.1.0]hept-3-en-5-yl)-6-methoxy-3-pyridinyl)-2-(1,3-oxazol-2-ylmethoxy)pyrido[3,4-b]pyrazin-5-amine] | 0.2 | 0.00509 | 1080 | 0.0164
COC[C@]12C[C@H]1[C@@](C)(c1cc(Nc3nccc4cc(OC)cnc34)cc(F)c1F)N=C(N)S2 [Example 629, N-(3-((1S,5S,6S)-3-amino-1-(methoxymethyl)-5-methyl-2-thia-4-azabicyclo[4.1.0]hept-3-en-5-yl)-4,5-difluorophenyl)-3-methoxy-1,7-naphthyridin-8-amine] | 0.0582 | 0.0205 | 2880 | 0.0365
C#CCOc1cnc2c(Nc3cc(F)c(F)c([C@@]4(C)N=C(N)S[C@@]5(S(C)(=O)=O)C[C@H]54)c3)nccc2n1 [Example 630, N-(3-((1R,5S,6S)-3-amino-5-methyl-1-(methylsulfonyl)-2-thia-4-azabicyclo[4.1.0]hept-3-en-5-yl)-4,5-difluorophenyl)-2-(2-propyn-1-yloxy)pyrido[3,4-b]pyrazin-5-amine] | 0.00547 | 0.00528 | 74.9 | 0.000443
C#CCOc1cnc2c(Nc3ccc(F)c([C@@]4(C)N=C(N)S[C@@]5(C(=O)N6CCCC6)C[C@H]54)c3)nccc2n1 [Example 632, N-(3-((1S,5S,6S)-3-amino-5-methyl-1-(1-pyrrolidinylcarbonyl)-2-thia-4-azabicyclo[4.1.0]hept-3-en-5-yl)-4-fluorophenyl)-2-(2-propyn-1-yloxy)pyrido[3,4-b]pyrazin-5-amine] | 0.00302 | 0.000535 | 961 | 0.000715
C#CCOc1cnc(C(=O)Nc2ccc(F)c([C@@]3(C)N=C(N)S[C@@]4(C(=O)N5CCCC5)C[C@H]43)c2)cn1 [Example 633, N-(3-((1S,55,6S)-3-amino-5-methyl-1-(1-pyrrolidinylcarbonyl)-2-thia-4-azabicyclo[4.1.0]hept-3-en-5-yl)-4-fluorophenyl)-5-(2-propyn-1-yloxy)-2-pyrazinecarboxamide] | 0.00165 | 0.000224 | 67.5 | 0.00036
C[C@]1(c2cc(NC(=O)c3cnc(OCC(F)(F)F)cn3)ccc2F)N=C(N)S[C@@]2(C(=O)N3CCCC3)C[C@H]21 [Example 634, N-(3-((1S,5S,6S)-3-amino-5-methyl-1-(1-pyrrolidinylcarbonyl)-2-thia-4-azabicyclo[4.1.0]hept-3-en-5-yl)-4-fluorophenyl)-5-(2,2,2-trifluoroethoxy)-2-pyrazinecarboxamide] | 0.00951 | 0.000616 | 660 | 0.000758

From patent US20160046618A1, “Cyclopropyl Fused Thiazin-2-Amine Compounds as Beta-Secretase Inhibitors and Methods of Use” (AMGEN INC., priority 2014, published 2016)
